Data published in patent US20200231638A1, “STABILIZED ANTI-MICROBIAL PEPTIDES” (priority 2015, published 2020).
Bridge positions count the residues as written; N and C are the ends. Square brackets hold non-standard residues; d marks the D form. Peptide text beside a SMILES is read from it. S5 = C=CCCC[C@](C)(N)C(=O)O; Nle = CCCC[C@H](N)C(=O)O

Columns and labels:
B. cereus = format: cell-based, Bacillus cereus
Method in brief: (§1)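 Broth microdilution in anion-exchange-refined Mueller-Hinton broth; serially diluted peptide mixed with bacteria at 5×10^5 CFU/ml final inoculum. Incubated 20-24 hours at 37° C. MIC taken as lowest peptide concentration with no visible growth.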

E. coli = format: cell-based, Escherichia coli
Method in brief: as §1

P. aeruginosa = format: cell-based, Pseudomonas aeruginosa
Method in brief: as §1

S. aureus = format: cell-based, Staphylococcus aureus
Method in brief: as §1

human red blood cells = format: cell-based; conditions: red cells of human, 1 h, 25
Method in brief: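 Washed human RBCs as 1% (v/v) suspension in phosphate-buffered saline incubated 1 h at 37° C with serially diluted peptides. Hemoglobin release in supernatant measured spectrophotometrically (570 nm), % hemolysis relative to untreated and 1% Triton-X100 controls; MHC defined as concentration giving less than 1% release.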

SMILES | MIC B. cereus (B. cereus) | MIC E. coli (E. coli) | MIC P. aeruginosa (P. aeruginosa) | MIC S. aureus (S. aureus) | % Hemolysis at 25 μg/ml (human red blood cells)
CCCC[C@H](NC(=O)[C@]1(C)CCCC=CCCC[C@](C)(NC(=O)[C@H](C)NC(=O)[C@H](CCCCN)NC(=O)CNC(=O)[C@H](Cc2ccccc2)NC(=O)[C@H](CCCCN)NC(=O)[C@H](CCCCN)NC(=O)[C@H](C)NC(=O)[C@H](CO)NC(=O)[C@H](Cc2c[nH]cn2)NC(=O)[C@H](CC(C)C)NC(=O)[C@H](Cc2ccccc2)NC(=O)[C@H](CCC(=O)O)NC(=O)CNC(=O)[C@@H](NC(=O)CN)[C@@H](C)CC)C(=O)N[C@@H](C(C)C)C(=O)NCC(=O)N[C@@H](CCC(=O)O)C(=O)N1)C(=O)N[C@@H](CC(N)=O)C(=O)N[C@@H](CO)C(N)=O [Mag(i + 4)15(K4E), GIGEFLHSAKKFGKAXVGEXBNS] (H-GIGEFLHSAKKFGKA[S5]VGE[S5][Nle]NS-NH2; staple 16-20) | 50 µg/mL | 12.5 µg/mL | >50 µg/mL | >50 µg/mL | 2.2%
CCCC[C@H](NC(=O)[C@]1(C)CCCC=CCCC[C@](C)(NC(=O)[C@H](C)NC(=O)[C@H](CCCCN)NC(=O)CNC(=O)[C@H](Cc2ccccc2)NC(=O)[C@H](CCCCN)NC(=O)[C@H](CCC(=O)O)NC(=O)[C@H](C)NC(=O)[C@H](CO)NC(=O)[C@H](Cc2c[nH]cn2)NC(=O)[C@H](CC(C)C)NC(=O)[C@H](Cc2ccccc2)NC(=O)[C@H](CCCCN)NC(=O)CNC(=O)[C@@H](NC(=O)CN)[C@@H](C)CC)C(=O)N[C@@H](C(C)C)C(=O)NCC(=O)N[C@@H](CCC(=O)O)C(=O)N1)C(=O)N[C@@H](CC(N)=O)C(=O)N[C@@H](CO)C(N)=O [Mag(i + 4)15(K10E), GIGKFLHSAEKFGKAXVGEXBNS] (H-GIGKFLHSAEKFGKA[S5]VGE[S5][Nle]NS-NH2; staple 16-20) | >50 µg/mL | 6.2 µg/mL | >50 µg/mL | >50 µg/mL | 2.4%
CCCC[C@H](NC(=O)[C@]1(C)CCCC=CCCC[C@](C)(NC(=O)[C@H](C)NC(=O)[C@H](CCCCN)NC(=O)CNC(=O)[C@H](Cc2ccccc2)NC(=O)[C@H](CCC(=O)O)NC(=O)[C@H](CCCCN)NC(=O)[C@H](C)NC(=O)[C@H](CO)NC(=O)[C@H](Cc2c[nH]cn2)NC(=O)[C@H](CC(C)C)NC(=O)[C@H](Cc2ccccc2)NC(=O)[C@H](CCCCN)NC(=O)CNC(=O)[C@@H](NC(=O)CN)[C@@H](C)CC)C(=O)N[C@@H](C(C)C)C(=O)NCC(=O)N[C@@H](CCC(=O)O)C(=O)N1)C(=O)N[C@@H](CC(N)=O)C(=O)N[C@@H](CO)C(N)=O [Mag(i + 4)15(K11E), GIGKFLHSAKEFGKAXVGEXBNS] (H-GIGKFLHSAKEFGKA[S5]VGE[S5][Nle]NS-NH2; staple 16-20) | 12.5 µg/mL | 6.2 µg/mL | >50 µg/mL | 50 µg/mL | 2.9%
CCCC[C@H](NC(=O)[C@]1(C)CCCC=CCCC[C@](C)(NC(=O)[C@H](C)NC(=O)[C@H](CCCCN)NC(=O)CNC(=O)[C@H](Cc2ccccc2)NC(=O)[C@H](CCCCN)NC(=O)[C@H](CCCCN)NC(=O)[C@H](C)NC(=O)[C@H](CO)NC(=O)[C@H](Cc2c[nH]cn2)NC(=O)[C@H](CCC(=O)O)NC(=O)[C@H](Cc2ccccc2)NC(=O)[C@H](CCCCN)NC(=O)CNC(=O)[C@@H](NC(=O)CN)[C@@H](C)CC)C(=O)N[C@@H](C(C)C)C(=O)NCC(=O)N[C@@H](CCC(=O)O)C(=O)N1)C(=O)N[C@@H](CC(N)=O)C(=O)N[C@@H](CO)C(N)=O [Mag(i + 4)15(L6E), GIGKFEHSAKKFGKAXVGEXBNS] (H-GIGKFEHSAKKFGKA[S5]VGE[S5][Nle]NS-NH2; staple 16-20) | >50 µg/mL | 50 µg/mL | >50 µg/mL | >50 µg/mL | 1.1%
CCCC[C@H](NC(=O)[C@]1(C)CCCC=CCCC[C@](C)(NC(=O)[C@H](C)NC(=O)[C@H](CCCCN)NC(=O)CNC(=O)[C@H](Cc2ccccc2)NC(=O)[C@H](CCCCN)NC(=O)[C@H](CCCCN)NC(=O)[C@H](C)NC(=O)[C@H](CO)NC(=O)[C@H](Cc2c[nH]cn2)NC(=O)[C@H](CCCCN)NC(=O)[C@H](Cc2ccccc2)NC(=O)[C@H](CCCCN)NC(=O)CNC(=O)[C@@H](NC(=O)CN)[C@@H](C)CC)C(=O)N[C@@H](C(C)C)C(=O)NCC(=O)N[C@@H](CCC(=O)O)C(=O)N1)C(=O)N[C@@H](CC(N)=O)C(=O)N[C@@H](CO)C(N)=O [Mag(i + 4)15(L6K), GIGKFKHSAKKFGKAXVGEXBNS] (H-GIGKFKHSAKKFGKA[S5]VGE[S5][Nle]NS-NH2; staple 16-20) | >50 µg/mL | 3.1 µg/mL | 12.5 µg/mL | >50 µg/mL | 1.9%
CCCC[C@H](NC(=O)[C@]1(C)CCCC=CCCC[C@](C)(NC(=O)[C@H](C)NC(=O)[C@H](CCCCN)NC(=O)CNC(=O)[C@H](Cc2ccccc2)NC(=O)[C@H](CCCCN)NC(=O)[C@H](CCCCN)NC(=O)[C@H](C)NC(=O)[C@H](CO)NC(=O)[C@H](Cc2c[nH]cn2)NC(=O)[C@H](CC(C)C)NC(=O)[C@H](Cc2ccccc2)NC(=O)[C@H](CCCCN)NC(=O)CNC(=O)[C@@H](NC(=O)CN)[C@@H](C)CC)C(=O)N[C@@H](C(C)C)C(=O)NCC(=O)N[C@@H](CCC(=O)O)C(=O)N1)C(=O)N[C@@H](CCC(=O)O)C(=O)N[C@@H](CO)C(N)=O [Mag(i + 4)15(N22E), GIGKFLHSAKKFGKAXVGEXBES] (H-GIGKFLHSAKKFGKA[S5]VGE[S5][Nle]ES-NH2; staple 16-20) | 12.5 µg/mL | 3.1 µg/mL | 12.5 µg/mL | 25 µg/mL | 3.4%
CCCC[C@H](NC(=O)[C@]1(C)CCCC=CCCC[C@](C)(NC(=O)[C@H](C)NC(=O)[C@H](CCCCN)NC(=O)CNC(=O)[C@H](Cc2ccccc2)NC(=O)[C@H](CCCCN)NC(=O)[C@H](CCCCN)NC(=O)[C@H](C)NC(=O)[C@H](CO)NC(=O)[C@H](Cc2c[nH]cn2)NC(=O)[C@H](CC(C)C)NC(=O)[C@H](Cc2ccccc2)NC(=O)[C@H](CCCCN)NC(=O)CNC(=O)[C@@H](NC(=O)CN)[C@@H](C)CC)C(=O)N[C@@H](C(C)C)C(=O)NCC(=O)N[C@@H](CCC(=O)O)C(=O)N1)C(=O)N[C@@H](CCCCN)C(=O)N[C@@H](CO)C(N)=O [Mag(i + 4)15(N22K), GIGKFLHSAKKFGKAXVGEXBKS] (H-GIGKFLHSAKKFGKA[S5]VGE[S5][Nle]KS-NH2; staple 16-20) | 3.1 µg/mL | 1.6 µg/mL | 3.1 µg/mL | 12.5 µg/mL | 12.0%
CCCC[C@H](NC(=O)[C@]1(C)CCCC=CCCC[C@](C)(NC(=O)[C@H](C)NC(=O)[C@H](CCCCN)NC(=O)CNC(=O)[C@H](Cc2ccccc2)NC(=O)[C@H](CCCCN)NC(=O)[C@H](CCCCN)NC(=O)[C@H](C)NC(=O)[C@H](Cc2c[nH]cn2)NC(=O)[C@H](Cc2c[nH]cn2)NC(=O)[C@H](CC(C)C)NC(=O)[C@H](Cc2ccccc2)NC(=O)[C@H](CCCCN)NC(=O)CNC(=O)[C@@H](NC(=O)CN)[C@@H](C)CC)C(=O)N[C@@H](C(C)C)C(=O)NCC(=O)N[C@@H](CCC(=O)O)C(=O)N1)C(=O)N[C@@H](CC(N)=O)C(=O)N[C@@H](CO)C(N)=O [Mag(i + 4)15(S8H), GIGKFLHHAKKFGKAXVGEXBNS] (H-GIGKFLHHAKKFGKA[S5]VGE[S5][Nle]NS-NH2; staple 16-20) | 3.1 µg/mL | 1.6 µg/mL | 3.1 µg/mL | 3.1 µg/mL | 8.7%
CCCC[C@H](NC(=O)[C@]1(C)CCCC=CCCC[C@](C)(NC(=O)[C@H](C)NC(=O)[C@H](CCCCN)NC(=O)CNC(=O)[C@H](Cc2ccccc2)NC(=O)[C@H](CCCCN)NC(=O)[C@H](CCCCN)NC(=O)[C@H](C)NC(=O)[C@H](CCCCN)NC(=O)[C@H](Cc2c[nH]cn2)NC(=O)[C@H](CC(C)C)NC(=O)[C@H](Cc2ccccc2)NC(=O)[C@H](CCCCN)NC(=O)CNC(=O)[C@@H](NC(=O)CN)[C@@H](C)CC)C(=O)N[C@@H](C(C)C)C(=O)NCC(=O)N[C@@H](CCC(=O)O)C(=O)N1)C(=O)N[C@@H](CC(N)=O)C(=O)N[C@@H](CO)C(N)=O [Mag(i + 4)15(S8K), GIGKFLHKAKKFGKAXVGEXBNS] (H-GIGKFLHKAKKFGKA[S5]VGE[S5][Nle]NS-NH2; staple 16-20) | 3.1 µg/mL | 1.6 µg/mL | 6.2 µg/mL | 6.2 µg/mL | 3.4%
